Source: ChEMBL document CHEMBL5729705, “Amide compounds for treatment of immune and inflammatory disorders” (2023)

Target: Complement factor D (Homo sapiens, UniProt P00746)
Test: Human Factor D Assay: Human Factor D (purified from human serum, Complement Technology, Inc.) at 80 nM final concentration is incubated with test compound at various concentrations for 5 minutes at room temperature in 50 mM Tris, 1M NaCl, pH 7.5. A synthetic substrate Z-L-Lys-SBzl and DTNB (Ellman's reagent) are added to final concentrations of 100 μM each. Absorbance at 405 nm (A405) is recorded at 30 second intervals for 30 minutes using a microplate spectrophotometer. IC50values are calculated by nonlinear regression of complement Factor D reaction rates as a function of test compound concentration.

Sequence of Complement factor D (P00746 whole entry): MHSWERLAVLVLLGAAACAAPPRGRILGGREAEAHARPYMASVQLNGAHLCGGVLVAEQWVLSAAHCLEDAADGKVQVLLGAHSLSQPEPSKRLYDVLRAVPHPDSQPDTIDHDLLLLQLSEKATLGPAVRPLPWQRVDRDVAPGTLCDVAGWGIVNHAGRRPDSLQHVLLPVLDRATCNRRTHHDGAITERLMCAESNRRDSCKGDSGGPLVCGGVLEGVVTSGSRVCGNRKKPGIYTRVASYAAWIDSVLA

Compound | IC50 [µM]
Cc1cccc(CC(O)[C@@H]2C[C@@H](F)CN2C(=O)Cn2cc(C(N)=O)c3cc(C(=O)NS(=O)(=O)C4CC4)ccc32)n1 (some centres not stated) | > 10
Cc1cccc(CC(O)[C@H]2C[C@@H](F)CN2C(=O)Cn2cc(C(N)=O)c3cc(C(=O)NS(=O)(=O)C4CC4)ccc32)n1 (some centres not stated) | > 10
